SMILES strings stand for the structures. Where two headings read alike, the source gives them in different places. A value given as a limit tells only on which side of the number the result lay.

The conditions of data set [1]: rat.
A further data set is described as follows: in vitro. The conditions noted are these: rat, microsomes.
The test system of another data set is H889. Kind of data set: Cytotoxicity SCLC 72 hr alamar blue. In kind it is cell-based, human. The conditions noted are these: Homo sapiens, NCI-H889, 72 h. (In general: The colour change of resazurin is a common sign of viable cells or microbes.)
For another data set, the system named is MA-10-W51. Kind of data set: Cytotoxicity leukemia. The conditions noted are these: growth factor dependent MA-10-W51. Format: cell-based, human. The source says: Human cord blood CD34+ cells transduced with MLL-AF9 gene: MA-10, MA-18. Human bone marrow CD34+ cells transduced with MLL-AF9 gene: MA-23. Human cord blood CD34+ cells transduced with MLL-AF9 and N-ras genes: MA-9.3, […] ).

The next data set concerns CV1 renal fibroblasts. Kind of data set: Cytotoxicity normal tissue 72 hr. In kind it is cell-based, African green monkey (Cercopithecus aethiops). The conditions noted are these: Chlorocebus sabaeus, Fibroblast, 72 h.
Data set [2] has as its system HUVEC umbilical endothelium. The experiment in a line: Cytotoxicity normal tissue 72 hr. Format: cell-based, human.
The subject of data set [3] is BCI-NSI hTERT bronchial epithelium. Kind of data set: Cytotoxicity normal tissue 72 hr. Format: cell-based, human.
Data set [4] relates to JEKO-1. Kind of data set: Cytotoxicity mantle cell lymphoma.
Experimental: (§1) After 72 hours, the cultures were pulsed with Alamar Blue overnight, and the fluorescent intensity of resulted cultures was measured by a Synergy H1 plate-reader (BioTek Inc).
Data set [5] concerns nude mice bearing prostate 22Rv/HL2. The conditions noted are these: mouse, in vivo.
Data set [6] shares this test system. The conditions noted are these: mouse, in vivo. The source holds these as a separate data set.
Data set [7] has as its system nude mice bearing prostate 22Rv/HL2 tumor xenografts. The conditions noted are these: mouse, in vivo.
Another data set has as its system NECB1. Kind of data set: Combination with BO-1055, MCL (Tables 28, 29). Format: cell-based, human.
The subject of another data set is Ly18. Kind of data set: Cytotoxicity DLBCL. As to conditions: read-out: cytotoxicity IC50; LY18, DLBCL GCB.
Another data set has as its system REC-1. The experiment in a line: Combination with BO-1055, MCL (Tables 28, 29). In kind it is cell-based, human.
The test system of another data set is Granta. The experiment in a line: Combination with BO-1055, MCL (Tables 28, 29). In kind it is cell-based, human.
The test system of another data set is A204 rhabdomyosarcoma. The experiment in a line: Cytotoxicity sarcoma. As to conditions: read-out: cytotoxic activity (IC50), A204 (rhabdoid?).
In a further data set the test system is SUDHL-5. Kind of data set: Cytotoxicity DLBCL. The conditions noted are these: read-out: cytotoxicity IC50; SUDHL-5, DLBCL GCB.
In a further data set the test system is Ly19. The experiment in a line: cells. As to conditions: Homo sapiens, read-out: cytotoxicity IC50.
Another data set concerns the target hERG (Homo sapiens, UniProt Q12809). The experiment in a line: in vitro.
Data set [8] deals with Mino. The experiment in a line: Combination with BO-1055, MCL (Tables 28, 29). Format: cell-based, human.
In another data set the test system is NECB-1. The experiment in a line: Cytotoxicity mantle cell lymphoma.
The test system of the next data set is Toledo. As to conditions: human.
The next data set has as its system U2932. The conditions noted are these: human.
For another data set, the system named is Farage. The experiment in a line: cells. As to conditions: Homo sapiens, read-out: cytotoxicity IC50.
The subject of data set [9] is Z-138. The experiment in a line: Cytotoxicity mantle cell lymphoma. As to conditions: read-out: cytotoxicity IC50, Z-138, mantle cell lymphoma.
Experimental: as §1
The test system of another data set is HBL1. The conditions noted are these: human.
The test system of data set [10] is Z-138. The experiment in a line: Combination with BO-1055, MCL (Tables 28, 29). In kind it is cell-based, human.
Data set [11] relates to Granta-519.
Experimental: as §1
Data set [12] deals with Mino.
Experimental: as §1
For data set [13], the system named is JEKO-1. The conditions noted are these: human.
Experimental: as §1
Data set [14] relates to Granta-519. Kind of data set: Cytotoxicity mantle cell lymphoma. As to conditions: human, Granta-519 mantle cell lymphoma cells, 72 h.
Experimental: as §1
Data set [15] deals with Mino. Kind of data set: Cytotoxicity mantle cell lymphoma. The conditions noted are these: human, Mino mantle cell lymphoma cells, 72 h.
Experimental: as §1
Data set [16] concerns FTE-hTERT Fallopian epithelium. Kind of data set: Cytotoxicity normal tissue 72 hr. Format: cell-based, human.
For the next data set, the system named is BMMSC BM mesenchyme. Kind of data set: Cytotoxicity normal tissue 72 hr. In kind it is cell-based, human.
For data set [17], the system named is spontaneous murine B-cell lymphoma. As to conditions: mouse.
Another data set relates to LY1. As to conditions: human.
The next data set relates to Ly3 (OCI-LY3). The conditions noted are these: human.
The mark [18] stands for this setting: read-out: cytotoxicity IC50, NECB-1, mantle cell lymphoma.

Sequence of hERG (Q12809 whole entry): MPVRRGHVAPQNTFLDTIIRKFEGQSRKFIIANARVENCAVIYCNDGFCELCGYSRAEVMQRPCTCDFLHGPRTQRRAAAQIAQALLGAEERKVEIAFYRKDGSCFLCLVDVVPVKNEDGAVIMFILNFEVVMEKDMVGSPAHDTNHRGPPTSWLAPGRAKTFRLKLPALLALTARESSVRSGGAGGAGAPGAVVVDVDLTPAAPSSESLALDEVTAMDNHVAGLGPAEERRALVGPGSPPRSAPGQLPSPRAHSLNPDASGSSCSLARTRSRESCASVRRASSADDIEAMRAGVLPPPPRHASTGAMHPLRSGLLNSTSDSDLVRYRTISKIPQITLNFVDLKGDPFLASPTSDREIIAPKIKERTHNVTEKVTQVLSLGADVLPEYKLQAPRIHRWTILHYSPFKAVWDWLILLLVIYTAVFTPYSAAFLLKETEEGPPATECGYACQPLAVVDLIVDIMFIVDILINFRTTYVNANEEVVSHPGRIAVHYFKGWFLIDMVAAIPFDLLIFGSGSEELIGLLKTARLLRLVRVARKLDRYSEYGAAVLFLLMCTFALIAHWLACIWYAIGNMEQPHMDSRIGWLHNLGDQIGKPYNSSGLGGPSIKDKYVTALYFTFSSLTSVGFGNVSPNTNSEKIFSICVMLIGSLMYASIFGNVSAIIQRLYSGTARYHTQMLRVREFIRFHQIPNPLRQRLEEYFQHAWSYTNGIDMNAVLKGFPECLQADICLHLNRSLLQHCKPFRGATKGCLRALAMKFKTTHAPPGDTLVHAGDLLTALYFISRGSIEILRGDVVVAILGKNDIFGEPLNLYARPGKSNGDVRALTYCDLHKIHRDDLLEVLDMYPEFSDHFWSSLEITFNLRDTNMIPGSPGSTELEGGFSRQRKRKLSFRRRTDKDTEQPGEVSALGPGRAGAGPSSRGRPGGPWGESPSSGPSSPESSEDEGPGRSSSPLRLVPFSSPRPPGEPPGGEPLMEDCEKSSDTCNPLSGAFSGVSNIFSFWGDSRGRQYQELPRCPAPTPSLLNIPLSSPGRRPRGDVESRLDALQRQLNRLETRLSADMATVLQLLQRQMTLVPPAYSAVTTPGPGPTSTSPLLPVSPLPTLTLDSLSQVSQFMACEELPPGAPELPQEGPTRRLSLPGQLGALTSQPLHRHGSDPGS
Experimental for A204 rhabdomyosarcoma: as §1
Experimental for HBL1: as §1
Experimental for Ly10: as §1
Experimental for Ly18: as §1
Experimental for Ly3 (OCI-LY3): as §1
Experimental for Ly8: as §1
Experimental for NECB-1: as §1
Experimental for Pfeiffer: as §1
Experimental for SUDHL-4: as §1
Experimental for SUDHL-6: as §1
Experimental for Toledo: as §1
Experimental for U2932: as §1

By half-life is commonly meant the time in which the quantity being followed falls by half. A lower half-life goes with rapid decline. With `CCOc1ccc2ccc(=O)oc2c1` [7-EC, 7-Ethoxycoumarin], the “MR (metabolic rate)” value in data set [1] came to 0.0448 nmol/min/mg. Further, in [1] (microsomes, 1 h), the “% Remaining at 60 min” value worked out at 18%; the “Microsome stability, standards” value was “High standard = 95%”; the “Microsome stability, turnover” value is listed as 7-EC ≥ 82%). Further, the half-life in the data set “in vitro” was 23.5 min.
Broadly, the IC50 is the concentration that inhibits the measured activity by half. In turn, `O=NN(CCCl)C(=O)NCCCl` [BCNU, BCNU/Carmustine] had an IC50 with H889 of over 45 µM.
Take `CCc1c(CO)c(CO)c2n1Cc1c(c3ccccc3n1C)C2` [BO-1978]: in the data set on MA-10-W51, the “cytotoxicity, dose titration (FIG. 9)” value is given as “highly cytotoxic, with BO-1978 more so than BO-1055”.
For `Cn1c(CCCC(=O)O)nc2cc(N(CCCl)CCCl)ccc21` [Bendamustine], the IC50 is over 100 µM in the data set with CV1 renal fibroblasts, 150 µM in [2], 150 µM in data set [3] and 6.25 µM in the data set on JEKO-1 [4].
Regarding `CC(=O)O[C@@]12CO[C@@H]1C[C@H](O)[C@@]1(C)C(=O)[C@H](O)C3=C(C)[C@@H](OC(=O)[C@H](O)[C@@H](NC(=O)OC(C)(C)C)c4ccccc4)C[C@@](O)([C@@H](OC(=O)c4ccccc4)[C@H]21)C3(C)C` [Docetaxel], in data set [5], the BASO was 0.08 10^3/μL, the EOS is on record as 0.12 10^3/μL, the LYM was 0.66 10^3/μL and the MONO is 0.04 10^3/μL. Also, in data set [5], the NEU is given as 1.34 10^3/μL, the PLT is on record as 308 10^3/μL, the RBC was 7.55 10^6/μL and the WBC is given as 2.49 10^3/μL. In data set [6], this molecule registered an ALT of 54.08 U/L, an AST of 108.60 U/L, a BUN of 21.93 mg/dL and a CREA of 0.32 mg/dL. Moreover, the UA in data set [6] is on record as 3.60 mg/dL. The “pathological change in heart, liver, spleen, lung and kidney” value in data set [7] was “no apparent pathological change”.
`COc1cccc2c1C(=O)c1c(O)c3c(c(O)c1C2=O)C[C@@](O)(C(=O)CO)C[C@@H]3O[C@H]1C[C@H](N)[C@H](O)[C@H](C)O1` [Doxorubicin]: the “interaction with BO-1055” value in the data set with NECB1 is “synergistic with combo-1 and antagonistic against combo-2”; in the data set with REC-1, “both combinations were antagonistic”; in the data set on Granta it was “synergistic with combo-1 and antagonistic against combo-2”; in the data set with Mino [8] it was “both combinations were synergistic”; in the data set on Z-138 [10], “both combinations were synergistic”. Besides, the half-inhibitory concentration (IC50) was determined as 0.097 µM in the data set on Ly18; 0.195 µM with SUDHL-6 (human); 0.011 µM with A204 rhabdomyosarcoma; 0.912 µM in the data set on SUDHL-5; 0.121 µM with Ly19; 0.03 ± 0.03 µM against hERG. In addition, the IC50 in the data set with NECB-1 (setting [18]) is 0.163 µM; in the data set with NECB-1 (read-out: cytotoxicity IC50, NECB-1, mantle cell lymphoma, listed as Doxo), 1.23 µM; in the data set with Toledo it was over 10 µM; in the data set with U2932, 0.05 µM; in the data set on Farage it was 0.273 µM; in the data set with Z-138 [9], 0.033 µM. Further, the IC50 was determined as 0.34 µM with Z-138 [9] (listed as Doxo); 0.061 µM in the data set with Pfeiffer (human); 0.084 µM in the data set with Ly10 (human); 0.211 µM in the data set with HBL1; 0.05 µM in the data set on JEKO-1 [4].
In the case of `COc1cc([C@@H]2c3cc4c(cc3[C@@H](O[C@@H]3O[C@@H]5CO[C@@H](C)O[C@H]5[C@H](O)[C@H]3O)[C@H]3COC(=O)[C@H]23)OCO4)cc(OC)c1O` [Etoposide], the midpoint of inhibition in the data set with JEKO-1 [4], the IC50, lay at 0.78 µM.
Consider `CC(=O)O[C@H]1C(=O)[C@@]2(C)[C@H]([C@H](OC(=O)c3ccccc3)[C@]3(O)C[C@H](OC(=O)[C@H](O)[C@@H](NC(=O)c4ccccc4)c4ccccc4)C(C)=C1C3(C)C)[C@]1(OC(C)=O)CO[C@@H]1C[C@@H]2O` [Paclitaxel], for which the IC50 in the data set on NECB-1 (setting [18]) is 0.064 µM; in the data set with Granta-519 [11] (human), 0.049 µM; with Z-138 [9], 0.012 µM; in the data set on Mino [12] (human) it was 0.025 µM; in the data set with JEKO-1 [13], 0.017 µM.
Consider `Cc1[nH]c2ccccc2c1CCNCc1ccc(/C=C/C(=O)NO)cc1` [Panobinostat], for which the IC50 was 0.02 µM in the data set with NECB-1 (human, NECB-1 mantle cell lymphoma cells, 72 h); 0.21 µM in the data set on JEKO-1 [4] (human, JEKO-1 mantle cell lymphoma cells, 72 h); 0.041 µM in the data set with Granta-519 [14]; 0.291 µM with Mino [15].
Turning to `CCc1c2c(nc3ccc(O)cc13)-c1cc3c(c(=O)n1C2)COC(=O)[C@]3(O)CC` [SN-38], the IC50 in data set [16] came to 2000 µM; in data set [2] (read-out: IC50), 400 µM; in data set [3] (read-out: IC50), 500 µM; with JEKO-1 [4] it was 0.8 µM; in the data set on BMMSC BM mesenchyme, 200 µM.
With `CNC(=O)c1cc(Oc2ccc(NC(=O)Nc3ccc(Cl)c(C(F)(F)F)c3)cc2)ccn1` [SOR], the IC50 with SUDHL-6 is at least 8 µM; in the data set on Granta-519 [11], at least 8 µM; in the data set with Ly8 it was at least 8 µM; with Mino [12] it was at least 8 µM; with Pfeiffer, 4.57 µM; with Ly10, at least 8 µM. The half-maximal inhibitory concentration (IC50) in the data set with SUDHL-4 came out at 5.62 µM.
For `CC[C@]1(O)C[C@H]2CN(CCc3c([nH]c4ccccc34)[C@@](C(=O)OC)(c3cc4c(cc3OC)N(C=O)[C@H]3[C@@](O)(C(=O)OC)[C@H](OC(C)=O)[C@]5(CC)C=CCN6CC[C@]43[C@@H]65)C2)C1` [Vincristine], in the data set on JEKO-1 [4] (JEKO-1, 72 hr (Table 27)), the midpoint of inhibition, the IC50, lay at 0.39 µM.
Regarding `CC(C)C[C@H](NC(=O)[C@H](Cc1ccccc1)NC(=O)c1cnccn1)B(O)O` [velcade, Bortezomib], the “interaction with BO-1055” value was “synergistic with combo-1 and antagonistic with combo-2” in the data set with NECB1; “antagonistic in both combinations” in the data set on REC-1; “synergistic with combo-1 and antagonistic with combo-2” in the data set with Granta; “synergistic cytotoxic with both combinations” in the data set with Mino [8]; “synergistic cytotoxic with both combinations” in the data set on Z-138 [10]. Also, the IC50 worked out at 0.01 µM with Ly18; 0.001 µM with SUDHL-6 (human); 0.018 µM in the data set with SUDHL-5; 0.143 µM with NECB-1 (setting [18]); 0.108 µM in the data set on Toledo; 0.008 µM in the data set with Granta-519 [11] (human). Further, the IC50 with U2932 amounted to 0.005 µM; in [17] it was 0.006 µM; in the data set with Ly8 (human) it was 0.078 µM; in the data set on Mino [12] (human), 0.042 µM; in the data set with Pfeiffer (human), 0.004 µM; in the data set with HBL1, 0.004 µM. Also, the IC50 in the data set on SUDHL-4 (human) is 0.003 µM; in the data set on LY1 it was 0.005 µM; in the data set with Ly3 (OCI-LY3) it was 0.021 µM.

Values taken from patent US20200246284A1 (Academia Sinica, priority 2015, published 2020).
